Test results published in patent US10493125B2 (Merck Sharp & Dohme Corp., priority 2015, dated 2019).

Columns and labels:
[1] = biological target: T1, human GLP1R (Homo sapiens, UniProt P43220); assay: cAMP activity assay (HitHunter cAMP XS), cells expressing human GLP1R; assay type: cell-based; conditions: Table 2; cAMP production; read-out: EC50 hGLP1R
T1 construct: expressed in transfected cells
Method: (§1) Peptides were dissolved in 100% DMSO and serially diluted to generate 10 point titrations. The peptide solutions were then transferred into 384-well assay plates (150 nL/well). Assay ready frozen cells expressing human GLP1R or human GCGR were suspended in growth media consisting of DMEM medium (GIBCO), 10% FBS (GIBCO), 1×NEAA(GIBCO), 1× P/S (GIBCO), 10 ug/ml Blasticidin (GIBCO) and 200 μg/mL Hygromycin (GIBCO). […] The cell suspensions (15 μL) were then added to the assay plates containing the peptide solutions (30,000 cells/well for human GCGR; 10,000 cells/well for human GLP1R). The cells were incubated for 1 hour at room temperature in the dark. Production of cAMP was determined using HitHunter™ cAMPXS kits (DiscoverX) following manufacturer protocol. The plates were incubated for overnight at room temperature in the dark. Luminescence was measured using an EnVision Multilabel plate reader (Perkin Elmer). […] EC50 values were calculated using uses a 4 parameter logistic fit based on the Levenberg-Marquardt algorithm.

[2] = biological target: T2, human GCGR (Homo sapiens, UniProt P47871); assay: cAMP activity assay (HitHunter cAMP XS), cells expressing human GCGR; assay type: cell-based; conditions: for EC50: Table 2, cAMP production, read-out: EC50 hGCGR
T2 construct: expressed in transfected cells
T2 sequence (P47871 26-477): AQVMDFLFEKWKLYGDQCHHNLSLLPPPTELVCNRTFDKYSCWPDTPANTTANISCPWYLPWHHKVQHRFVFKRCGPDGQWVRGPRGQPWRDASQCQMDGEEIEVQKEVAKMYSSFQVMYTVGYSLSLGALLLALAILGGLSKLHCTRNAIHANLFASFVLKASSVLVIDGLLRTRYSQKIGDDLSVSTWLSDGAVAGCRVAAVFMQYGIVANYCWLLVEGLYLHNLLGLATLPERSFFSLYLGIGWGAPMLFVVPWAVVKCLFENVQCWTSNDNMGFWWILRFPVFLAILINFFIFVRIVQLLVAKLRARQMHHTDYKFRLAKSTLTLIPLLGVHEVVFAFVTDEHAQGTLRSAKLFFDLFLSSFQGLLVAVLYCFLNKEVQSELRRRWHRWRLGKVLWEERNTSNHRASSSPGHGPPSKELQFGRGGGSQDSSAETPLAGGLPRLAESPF
Method: as §1

T1 sequence (P43220 24-463): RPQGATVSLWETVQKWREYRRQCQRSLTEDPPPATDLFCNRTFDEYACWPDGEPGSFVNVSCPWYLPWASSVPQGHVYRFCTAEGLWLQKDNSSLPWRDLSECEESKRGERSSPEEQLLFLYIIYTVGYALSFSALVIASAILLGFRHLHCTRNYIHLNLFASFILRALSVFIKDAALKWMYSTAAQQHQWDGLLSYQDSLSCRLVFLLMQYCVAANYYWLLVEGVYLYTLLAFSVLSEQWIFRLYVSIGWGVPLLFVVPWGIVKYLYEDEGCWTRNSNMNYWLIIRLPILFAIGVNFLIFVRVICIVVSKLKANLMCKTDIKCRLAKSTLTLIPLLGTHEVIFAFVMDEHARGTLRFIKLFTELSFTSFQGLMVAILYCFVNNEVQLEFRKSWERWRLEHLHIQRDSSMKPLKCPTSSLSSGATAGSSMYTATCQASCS

| EC50 [1] [nM] | EC50 [2] [nM] | SMILES | balance of activity at the GCG and GLP-1 receptors ([2]; in words, both receptors) |
| --- | --- | --- | --- |
| 0.05 | 0.03 | CC(C)C[C@H](NC(=O)[C@H](Cc1ccc(O)cc1)NC(=O)[C@H](CCCCN)NC(=O)[C@H](CO)NC(=O)[C@H](Cc1ccc(O)cc1)NC(=O)[C@H](CC(=O)O)NC(=O)[C@H](CO)NC(=O)[C@@H](NC(=O)[C@H](Cc1ccccc1)NC(=O)[C@@H](NC(=O)CNC(=O)[C@H](CCC(N)=O)NC(=O)[C@H](CO)NC(=O)[C@@H](N)Cc1c[nH]cn1)[C@@H](C)O)[C@@H](C)O)C(=O)N[C@@H](CC(=O)O)C(=O)N[C@@H](Cc1c[nH]c2ccccc12)C(=O)N[C@@H](CCCNC(=N)N)C(=O)N[C@@H](CCCNC(=N)N)C(=O)N[C@@H](C)C(=O)N[C@@H](CCC(N)=O)C(=O)N[C@@H](CC(=O)O)C(=O)N[C@@H](Cc1ccccc1)C(=O)N[C@H](C(=O)N[C@@H](CCC(N)=O)C(=O)N[C@@H](Cc1c[nH]c2ccccc12)C(=O)N[C@@H](CC(C)C)C(=O)N[C@@H](CC(C)C)C(=O)N[C@@H](CC(N)=O)C(=O)N[C@H](C(N)=O)[C@@H](C)O)C(C)C [PD23] |  |
| 0.02 | 0.04 | CC[C@H](C)[C@H](NC(=O)[C@H](CC(C)C)NC(=O)[C@H](Cc1c[nH]c2ccccc12)NC(=O)[C@H](CCC(N)=O)NC(=O)[C@@H](NC(=O)[C@H](Cc1ccccc1)NC(=O)[C@H](CC(=O)O)NC(=O)[C@H](CCC(N)=O)NC(=O)[C@H](C)NC(=O)[C@H](CCCNC(=N)N)NC(=O)[C@H](CCCNC(=N)N)NC(=O)[C@H](C)NC(=O)[C@H](CC(=O)O)NC(=O)[C@H](CC(C)C)NC(=O)[C@H](Cc1ccc(O)cc1)NC(=O)[C@H](CCCCN)NC(=O)[C@H](CO)NC(=O)[C@H](Cc1ccc(O)cc1)NC(=O)[C@H](CC(=O)O)NC(=O)[C@H](CO)NC(=O)[C@@H](NC(=O)[C@H](Cc1ccccc1)NC(=O)[C@@H](NC(=O)CNC(=O)[C@H](CCC(N)=O)NC(=O)[C@H](CO)NC(=O)[C@@H](N)Cc1c[nH]cn1)[C@@H](C)O)[C@@H](C)O)C(C)C)C(=O)N[C@@H](CCCNC(=N)N)C(=O)N[C@H](C(N)=O)[C@@H](C)O [PD25] |  |
| 0.04 | 0.06 | CC[C@H](C)[C@H](NC(=O)[C@H](CC(C)C)NC(=O)[C@H](Cc1c[nH]c2ccccc12)NC(=O)[C@H](CCC(N)=O)NC(=O)[C@@H](NC(=O)[C@H](Cc1ccccc1)NC(=O)[C@H](CC(=O)O)NC(=O)[C@H](CCC(N)=O)NC(=O)[C@H](C)NC(=O)[C@H](CCCNC(=N)N)NC(=O)[C@H](CCCNC(=N)N)NC(=O)[C@H](CO)NC(=O)[C@H](CC(=O)O)NC(=O)[C@H](CC(C)C)NC(=O)[C@H](Cc1ccc(O)cc1)NC(=O)[C@H](CCCCN)NC(=O)[C@H](CO)NC(=O)[C@H](Cc1ccc(O)cc1)NC(=O)[C@H](CC(=O)O)NC(=O)[C@H](CO)NC(=O)[C@@H](NC(=O)[C@H](Cc1ccccc1)NC(=O)[C@@H](NC(=O)CNC(=O)[C@H](CCC(N)=O)NC(=O)[C@H](CO)NC(=O)[C@@H](N)Cc1c[nH]cn1)[C@@H](C)O)[C@@H](C)O)C(C)C)C(=O)N[C@@H](CC(N)=O)C(=O)N[C@@H](Cc1ccc(O)cc1)C(N)=O [PD31] |  |
| 0.04 | 0.03 | CSCC[C@H](NC(=O)[C@H](CC(C)C)NC(=O)[C@H](Cc1c[nH]c2ccccc12)NC(=O)[C@H](CCC(N)=O)NC(=O)[C@@H](NC(=O)[C@H](Cc1ccccc1)NC(=O)[C@H](CC(=O)O)NC(=O)[C@H](CCC(N)=O)NC(=O)[C@H](C)NC(=O)[C@H](CCCNC(=N)N)NC(=O)[C@H](CCCNC(=N)N)NC(=O)[C@H](CO)NC(=O)[C@H](CC(=O)O)NC(=O)[C@H](CC(C)C)NC(=O)[C@H](Cc1c[nH]c2ccccc12)NC(=O)[C@H](Cc1c[nH]cn1)NC(=O)[C@H](CO)NC(=O)[C@H](Cc1ccc(O)cc1)NC(=O)[C@H](CC(=O)O)NC(=O)[C@H](CO)NC(=O)[C@H](Cc1ccccc1)NC(=O)[C@H](Cc1ccccc1)NC(=O)[C@@H](NC(=O)CNC(=O)[C@H](CCC(N)=O)NC(=O)[C@H](CO)NC(=O)[C@@H](N)Cc1c[nH]cn1)[C@@H](C)O)C(C)C)C(=O)N[C@@H](CC(N)=O)C(=O)N[C@H](C(N)=O)[C@@H](C)O [PD43] |  |
| 0.01 | 0.02 | CC(C)C[C@H](NC(=O)[C@H](Cc1ccc(O)cc1)NC(=O)[C@H](CCCCN)NC(=O)[C@H](CO)NC(=O)[C@H](Cc1ccc(O)cc1)NC(=O)[C@H](CC(=O)O)NC(=O)[C@H](CO)NC(=O)[C@@H](NC(=O)[C@H](Cc1ccccc1)NC(=O)[C@@H](NC(=O)CNC(=O)[C@H](CCC(N)=O)NC(=O)[C@H](CO)NC(=O)[C@@H](N)Cc1c[nH]cn1)[C@@H](C)O)[C@@H](C)O)C(=O)N[C@@H](CC(=O)O)C(=O)N[C@@H](Cc1c[nH]c2ccccc12)C(=O)N[C@@H](CCCNC(=N)N)C(=O)N[C@@H](CCCNC(=N)N)C(=O)N[C@@H](C)C(=O)N[C@@H](CCC(N)=O)C(=O)N[C@@H](CC(=O)O)C(=O)N[C@@H](Cc1ccccc1)C(=O)N[C@H](C(=O)N[C@@H](CCC(N)=O)C(=O)N[C@@H](Cc1c[nH]c2ccccc12)C(=O)N[C@@H](CC(C)C)C(=O)N[C@@H](CCC(N)=O)C(=O)N[C@@H](CC(N)=O)C(=O)N[C@H](C(N)=O)[C@@H](C)O)C(C)C [PD44] | relatively balanced potent activity at the GCG and GLP-1 receptors |
| 0.02 | 0.07 | CC(C)C[C@H](NC(=O)[C@H](CC(C)C)NC(=O)[C@H](Cc1c[nH]c2ccccc12)NC(=O)[C@H](CC(=O)O)NC(=O)[C@@H](NC(=O)[C@H](Cc1ccccc1)NC(=O)[C@H](CC(=O)O)NC(=O)[C@H](CCC(N)=O)NC(=O)[C@H](C)NC(=O)[C@H](CCCNC(=N)N)NC(=O)[C@H](CCCNC(=N)N)NC(=O)[C@H](CO)NC(=O)[C@H](CC(=O)O)NC(=O)[C@H](CC(C)C)NC(=O)[C@H](Cc1ccc(O)cc1)NC(=O)[C@H](CCCCN)NC(=O)[C@H](CO)NC(=O)[C@H](Cc1ccc(O)cc1)NC(=O)[C@H](CC(=O)O)NC(=O)[C@H](CO)NC(=O)[C@@H](NC(=O)[C@H](Cc1ccccc1)NC(=O)[C@@H](NC(=O)CNC(=O)[C@H](CCC(N)=O)NC(=O)[C@H](CO)NC(=O)[C@@H](N)Cc1c[nH]cn1)[C@@H](C)O)[C@@H](C)O)C(C)C)C(=O)N[C@@H](CC(N)=O)C(=O)N[C@@H](C)C(N)=O [PD48] |  |
| 0.01 | 0.02 | CC[C@H](C)[C@H](NC(=O)[C@H](CC(C)C)NC(=O)[C@H](Cc1c[nH]c2ccccc12)NC(=O)[C@H](CC(=O)O)NC(=O)[C@@H](NC(=O)[C@H](Cc1ccccc1)NC(=O)[C@H](CC(=O)O)NC(=O)[C@H](CCC(N)=O)NC(=O)[C@H](C)NC(=O)[C@H](CCCNC(=N)N)NC(=O)[C@H](CCCNC(=N)N)NC(=O)[C@H](CO)NC(=O)[C@H](CC(=O)O)NC(=O)[C@H](CC(C)C)NC(=O)[C@H](Cc1ccc(O)cc1)NC(=O)[C@H](CCCCN)NC(=O)[C@H](CO)NC(=O)[C@H](Cc1ccc(O)cc1)NC(=O)[C@H](CC(=O)O)NC(=O)[C@H](CO)NC(=O)[C@@H](NC(=O)[C@H](Cc1ccccc1)NC(=O)[C@@H](NC(=O)CNC(=O)[C@H](CCC(N)=O)NC(=O)[C@H](CO)NC(=O)[C@@H](N)Cc1c[nH]cn1)[C@@H](C)O)[C@@H](C)O)C(C)C)C(=O)N[C@@H](CC(N)=O)C(=O)N[C@@H](CO)C(N)=O [PD50] |  |
| 0.02 | 0.03 | CSCC[C@H](NC(=O)[C@H](CC(C)C)NC(=O)[C@H](Cc1c[nH]c2ccccc12)NC(=O)[C@H](CCC(N)=O)NC(=O)[C@@H](NC(=O)[C@H](Cc1ccccc1)NC(=O)[C@H](CC(=O)O)NC(=O)[C@H](CCC(N)=O)NC(=O)[C@H](C)NC(=O)[C@H](CCCNC(=N)N)NC(=O)[C@H](CCCNC(=N)N)NC(=O)[C@H](CO)NC(=O)[C@H](CC(=O)O)NC(=O)[C@H](CC(C)C)NC(=O)[C@H](Cc1ccc(O)cc1)NC(=O)[C@H](CCCCN)NC(=O)[C@H](CO)NC(=O)[C@H](Cc1ccc(O)cc1)NC(=O)[C@H](CC(=O)O)NC(=O)[C@H](CO)NC(=O)[C@@H](NC(=O)[C@H](Cc1ccccc1)NC(=O)[C@@H](NC(=O)CNC(=O)[C@H](Cc1c[nH]cn1)NC(=O)[C@H](CO)NC(=O)[C@@H](N)Cc1c[nH]cn1)[C@@H](C)O)[C@@H](C)O)C(C)C)C(=O)N[C@H](C(=O)N[C@H](C(N)=O)[C@@H](C)O)[C@@H](C)O [PD51] |  |
| 0.01 | 0.01 | CSCC[C@H](NC(=O)[C@H](CC(=O)O)NC(=O)[C@H](CC(C)C)NC(=O)[C@H](Cc1ccc(O)cc1)NC(=O)[C@H](CCCCN)NC(=O)[C@H](CO)NC(=O)[C@H](Cc1ccc(O)cc1)NC(=O)[C@H](CC(=O)O)NC(=O)[C@H](CO)NC(=O)[C@@H](NC(=O)[C@H](Cc1ccccc1)NC(=O)[C@@H](NC(=O)CNC(=O)[C@H](CCC(N)=O)NC(=O)[C@H](CO)NC(=O)[C@@H](N)Cc1c[nH]cn1)[C@@H](C)O)[C@@H](C)O)C(=O)N[C@@H](CCC(N)=O)C(=O)N[C@@H](CCCNC(=N)N)C(=O)N[C@@H](C)C(=O)N[C@@H](Cc1c[nH]cn1)C(=O)N[C@@H](CC(=O)O)C(=O)N[C@@H](Cc1ccccc1)C(=O)N[C@H](C(=O)N[C@@H](CCC(N)=O)C(=O)N[C@@H](Cc1c[nH]c2ccccc12)C(=O)N[C@@H](CC(C)C)C(=O)N[C@@H](CCSC)C(=O)N[C@@H](CC(N)=O)C(=O)N[C@H](C(N)=O)[C@@H](C)O)C(C)C [PD55] |  |
